Values quoted from earlier work as cited in patent US20080194494A1, “4-Biarylyl-1-Phenylazetidin-2-One Glucuronide Derivatives for Hypercholesterolemia” (MICROBIA, INC., priority 2005, published 2008).

What was measured:
[1] = in humans
[2] = in vivo

O=C1[C@H](CC[C@H](O)c2ccc(F)cc2)[C@@H](c2ccc(O)cc2)N1c1ccc(F)cc1 [ezetimibe, (3R,4S)-1-(4-fluorophenyl)-3-[(3S)-3-(4-fluorophenyl)-3-hydroxypropyl]-4-(4-hydroxyphenyl)azetidin-2-one]
effect on fat-soluble vitamin absorption [1]: does not appear to affect
inhibition of the absorption of taurocholic acid [2]: does not inhibit
